# Molecular target: T1, Androgen Receptor (AR) (Homo sapiens, UniProt P10275, T878A)
# T1 construct: cell based immuno-fluorescence assay using the LNCaP prostate epithelial cell line; endogenous in cells; host or cells: LNCaP clone FGC (ATCC CRL-1740)
# T1 sequence (P10275 1-920 T878A): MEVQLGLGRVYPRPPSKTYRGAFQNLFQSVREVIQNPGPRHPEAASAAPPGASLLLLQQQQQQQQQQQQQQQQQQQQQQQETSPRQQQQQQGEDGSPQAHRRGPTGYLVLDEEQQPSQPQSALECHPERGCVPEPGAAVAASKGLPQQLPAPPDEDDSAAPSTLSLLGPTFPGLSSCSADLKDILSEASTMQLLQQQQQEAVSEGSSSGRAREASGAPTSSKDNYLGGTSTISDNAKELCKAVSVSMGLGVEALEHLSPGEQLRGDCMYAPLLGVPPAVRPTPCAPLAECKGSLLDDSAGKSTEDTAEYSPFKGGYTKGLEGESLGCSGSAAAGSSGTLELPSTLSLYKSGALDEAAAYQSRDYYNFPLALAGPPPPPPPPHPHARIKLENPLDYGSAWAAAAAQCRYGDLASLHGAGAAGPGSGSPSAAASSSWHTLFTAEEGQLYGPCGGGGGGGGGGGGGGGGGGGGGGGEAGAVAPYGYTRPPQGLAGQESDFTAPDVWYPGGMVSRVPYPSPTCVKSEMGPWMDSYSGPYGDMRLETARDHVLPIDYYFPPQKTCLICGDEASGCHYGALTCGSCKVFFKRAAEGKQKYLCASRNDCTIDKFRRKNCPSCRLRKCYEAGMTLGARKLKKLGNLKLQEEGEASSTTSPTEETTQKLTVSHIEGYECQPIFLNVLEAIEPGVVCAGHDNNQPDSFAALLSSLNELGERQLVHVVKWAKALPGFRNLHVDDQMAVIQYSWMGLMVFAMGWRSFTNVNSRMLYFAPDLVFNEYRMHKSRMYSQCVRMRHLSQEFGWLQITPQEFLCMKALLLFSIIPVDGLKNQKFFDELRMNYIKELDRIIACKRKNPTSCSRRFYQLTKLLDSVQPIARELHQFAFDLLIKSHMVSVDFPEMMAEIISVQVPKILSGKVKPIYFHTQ
# Experiment: LNCaP Androgen Receptor Down-regulation Cell Assay (immunofluorescence end point)
# Type: cell-based
# Details: LNCaP prostate carcinoma cells, compound incubation 20-22 hours, 50% reduction of the AR signal; read-out: Androgen Receptor Down-regulation Assay (a) IC50/μM
# How it was run: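 AR loss reported as IC50 from curve fits of fluorescence dose-response data, with AR immunostained and read by laser-scanning cytometry. Compound exposure was 20-22 h at 37° C in LNCaP cells grown in 5% charcoal-stripped FBS and plated overnight beforehand.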
row,SMILES,DC50 [µM]
1,FC(F)(F)c1nnc2ccc(N3CCN(c4noc(-c5ccccc5)n4)CC3)nn12 [Example 275],6
2,FC(F)(F)c1nnc2ccc(N3CCN(Cc4c[nH]c5ccc(Br)cc45)CC3)nn12 [Example 281],0.8
3,FC(F)(F)c1nnc2ccc(N3CCN(Cc4c[nH]c5cccc(Cl)c45)CC3)nn12 [Example 282],2.4
4,Fc1ccc2c(CN3CCN(c4ccc5nnc(C(F)(F)F)n5n4)CC3)c[nH]c2c1 [Example 284],0.98
5,N#Cc1ccc2[nH]cc(CN3CCN(c4ccc5nnc(C(F)F)n5n4)CC3)c2c1 [Example 286],8.5
6,Fc1ccc2[nH]cc(CN3CCN(c4ccc5nnc(C(F)F)n5n4)CC3)c2c1 [Example 290],5.8
7,"FC(F)(F)c1nnc2ccc(N3CCC(COC4CCOCC4)CC3)nn12 [Example 294, 6-[4-[(tetrahydro-2H-pyran-4-yloxy)methyl]piperidin-1-yl]-3-(trifluoromethyl)[1,2,4]triazolo[4,3-b]pyridazine]",9.5
8,FC(F)(F)c1nnc2ccc(N3CCC(COCC4CC4)CC3)nn12 [Example 295],3.4
9,COCCOCC1CCN(c2ccc3nnc(C(F)(F)F)n3n2)CC1 [Example 296],2.1
10,FC(F)(F)c1nnc2ccc(N3CCC(c4noc(-c5cccc(Cl)c5)n4)CC3)nn12 [Example 299],0.84
11,Fc1ccc(-c2nc(C3CCN(c4ccc5nnc(C(F)(F)F)n5n4)CC3)no2)cc1 [Example 300],1
12,Fc1cccc(-c2nc(C3CCN(c4ccc5nnc(C(F)(F)F)n5n4)CC3)no2)c1 [Example 302],1.1
13,N#Cc1cccc(-c2nc(C3CCN(c4ccc5nnc(C(F)(F)F)n5n4)CC3)no2)c1 [Example 303],5.8
14,"FC(F)(F)c1nnc2ccc(N3CCC(OCC4CC4)CC3)nn12 [Example 304, 6-[4-(cyclopropylmethoxy)piperidin-1-yl]-3-(trifluoromethyl)[1,2,4]triazolo[4,3-b]pyridazine]",1.8
15,"C[C@H](c1ccc(C#N)cc1)N1CCN(c2ccc3nnc(C(F)(F)F)n3n2)CC1 [Example 307, 4-[(1R)-1-[4-[3-(trifluoromethyl)[1,2,4]triazolo[4,3-b]pyridazin-6-yl]piperazin-1-yl]ethyl]benzonitrile]",3.4
16,"CC(C)(c1ccc(F)cc1)N1CCN(c2ccc3nnc(C(F)(F)F)n3n2)CC1 [Example 309, 6-[4-[1-(4-fluorophenyl)-1-methylethyl]piperazin-1-yl]-3-(trifluoromethyl)[1,2,4]triazolo[4,3-b]pyridazine]",1.6
17,"OC1(c2cccc(F)c2)CCN(c2ccc3nnc(C(F)(F)F)n3n2)CC1 [Example 310, 4-(3-fluorophenyl)-1-[3-(trifluoromethyl)[1,2,4]triazolo[4,3-b]pyridazin-6-yl]piperidin-4-ol]",3.2
18,COc1cccc(C2(O)CCN(c3ccc4nnc(C(F)(F)F)n4n3)CC2)c1 [Example 312],2.6
19,OC1(c2cccc(Cl)c2)CCN(c2ccc3nnc(C(F)(F)F)n3n2)CC1 [Example 313],1.8
20,"N#Cc1ccccc1C1(O)CCN(c2ccc3nnc(C(F)(F)F)n3n2)CC1 [Example 317, 2-[4-hydroxy-1-[3-(trifluoromethyl)[1,2,4]triazolo[4,3-b]pyridazin-6-yl]piperidin-4-yl]benzonitrile]",4.1
21,"COc1ccc(C2(O)CCN(c3ccc4nnc(C(F)(F)F)n4n3)CC2)cn1 [Example 321, 4-(6-methoxypyridin-3-yl)-1-[3-(trifluoromethyl)[1,2,4]triazolo[4,3-b]pyridazin-6-yl]piperidin-4-ol]",8
22,"Cc1ccnc(C2(O)CCN(c3ccc4nnc(C(F)(F)F)n4n3)CC2)c1 [Example 322, 4-(4-methylpyridin-2-yl)-1-[3-(trifluoromethyl)[1,2,4]triazolo[4,3-b]pyridazin-6-yl]piperidin-4-ol]",9.6
23,"OC1(c2nccs2)CCN(c2ccc3nnc(C(F)(F)F)n3n2)CC1 [Example 324, 4-(1,3-thiazol-2-yl)-1-[3-(trifluoromethyl)[1,2,4]triazolo[4,3-b]pyridazin-6-yl]piperidin-4-ol]",5.9
24,"FC(F)(F)c1nnc2ccc(N3CCC(c4c[nH]c5ncccc45)CC3)nn12 [Example 325, 6-[4-(1H-pyrrolo[2,3-b]pyridin-3-yl)piperidin-1-yl]-3-(trifluoromethyl)[1,2,4]triazolo[4,3-b]pyridazine]",> 1.2
25,FC(F)(F)c1nnc2ccc(N3CCC(c4c[nH]c5ccncc45)CC3)nn12 [Example 326],2
26,FC(F)(F)c1nnc2ccc(N3CCC(c4c[nH]c5cccnc45)CC3)nn12 [Example 328],0.75
27,COC(=O)c1cccc(C2CCN(c3ccc4nnc(C(F)(F)F)n4n3)C2)c1 (centres unmarked) [Example 334],1.1
28,FC(F)(F)c1ccc(C2CCN(c3ccc4nnc(C(F)(F)Cl)n4n3)C2)cc1 (centres unmarked) [Example 335],1.5
29,"FC(F)(Cl)c1nnc2ccc(N3CCN(c4c(Cl)cncc4Cl)CC3)nn12 [Example 339, 3-[chloro(difluoro)methyl]-6-[4-(3,5-dichloropyridin-4-yl)piperazin-1-yl][1,2,4]triazolo[4,3-b]pyridazine]",0.77

# More lines, now with the values ahead:
row,DC50 [µM],SMILES
1,2,N#Cc1ccc(-c2nc(N3CCN(c4ccc5nnc(C(F)(F)F)n5n4)CC3)no2)cc1 [Example 277]
2,0.65,N#Cc1ccc2[nH]cc(CN3CCN(c4ccc5nnc(C(F)(F)F)n5n4)CC3)c2c1 [Example 278]
3,0.78,FC(F)(F)c1nnc2ccc(N3CCN(Cc4c[nH]c5ccc(Cl)cc45)CC3)nn12 [Example 280]
4,0.78,Fc1ccc2[nH]cc(CN3CCN(c4ccc5nnc(C(F)(F)F)n5n4)CC3)c2c1 [Example 283]
5,2.7,"FC(F)(F)c1nnc2ccc(N3CCN(Cc4n[nH]c5ccccc45)CC3)nn12 [Example 285, 6-[4-(1H-indazol-3-ylmethyl)piperazin-1-yl]-3-(trifluoromethyl)[1,2,4]triazolo[4,3-b]pyridazine]"
6,2,FC(F)c1nnc2ccc(N3CCN(Cc4c[nH]c5ccc(Cl)cc45)CC3)nn12 [Example 287]
7,3.3,FC(F)c1nnc2ccc(N3CCN(Cc4c[nH]c5ccc(Br)cc45)CC3)nn12 [Example 288]
8,2.7,FC(F)c1nnc2ccc(N3CCN(Cc4c[nH]c5cccc(Cl)c45)CC3)nn12 [Example 289]
9,> 9.7,FC(F)c1nnc2ccc(N3CCN(Cc4c(Cl)[nH]c5ccccc45)CC3)nn12 [Example 291]
10,7,Fc1ccc2c(CN3CCN(c4ccc5nnc(C(F)F)n5n4)CC3)c[nH]c2c1 [Example 292]
11,5.7,CC(C)OCC1CCN(c2ccc3nnc(C(F)(F)F)n3n2)CC1 [Example 298]
12,1.8,FC(F)(F)c1nnc2ccc(N3CCC(c4noc(-c5ccccc5)n4)CC3)nn12 [Example 301]
13,1.4,"C[C@H](c1ccc(F)cc1)N1CCN(c2ccc3nnc(C(F)(F)F)n3n2)CC1 [Example 308, 6-[4-[(1R)-1-(4-fluorophenyl)ethyl]piperazin-1-yl]-3-(trifluoromethyl)[1,2,4]triazolo[4,3-b]pyridazine]"
14,5,COc1ccc(C2(O)CCN(c3ccc4nnc(C(F)(F)F)n4n3)CC2)cc1 [Example 311]
15,4.6,COc1ccccc1C1(O)CCN(c2ccc3nnc(C(F)(F)F)n3n2)CC1 [Example 314]
16,2,"OC1(c2ccccc2Cl)CCN(c2ccc3nnc(C(F)(F)F)n3n2)CC1 [Example 315, 4-(2-chlorophenyl)-1-[3-(trifluoromethyl)[1,2,4]triazolo[4,3-b]pyridazin-6-yl]piperidin-4-ol]"
17,8.6,"OC1(c2cncc(C(F)(F)F)c2)CCN(c2ccc3nnc(C(F)(F)F)n3n2)CC1 [Example 320, 4-[5-(trifluoromethyl)pyridin-3-yl]-1-[3-(trifluoromethyl)[1,2,4]triazolo[4,3-b]pyridazin-6-yl]piperidin-4-ol]"
18,> 8.1,"OC1(c2ccc(Cl)nc2)CCN(c2ccc3nnc(C(F)(F)F)n3n2)CC1 [Example 323, 4-(6-chloropyridin-3-yl)-1-[3-(trifluoromethyl)[1,2,4]triazolo[4,3-b]pyridazin-6-yl]piperidin-4-ol]"
19,1,FC(F)(F)c1nnc2ccc(N3CCC(c4c[nH]c5cnccc45)CC3)nn12 [Example 327]
20,2.7,COC(=O)c1ccccc1C1CCN(c2ccc3nnc(C(F)(F)F)n3n2)C1 (centres unmarked) [Example 333]
21,2.4,FC(F)(F)c1cccc(C2CCN(c3ccc4nnc(C(F)(F)Cl)n4n3)C2)c1 (centres unmarked) [Example 336]
